Source: the supplement of paper PMC10307832

Tests used:
Assay in all cases: relative viability (nuclei count vs DMSO), 5 days (fraction); higher = more cells survive
NCI-H2085 = test system: NCI-H2085
Method in brief: (§1)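 The day after seeding in 1536-well plates, lung cancer cell lines were treated by pin tool with a single drug, or with a fixed anchor-drug dose together with five library-drug doses (not always all listed) in √10 steps. After 5 days, a combined fix-and-stain solution (final 0.05% Triton X-100, 1% formaldehyde, 1 ug/ml Hoechst) was added. Nuclei counted on 4× images gave relative viability as treated counts over vehicle counts, reported as the median of duplicate plates.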

NCI-H2228 = test system: NCI-H2228
Method in brief: as §1

LC-2-ad = test system: LC-2-ad
Method in brief: as §1

UMC-11 = test system: UMC-11
Method in brief: as §1

HCC-366 = test system: HCC-366
Method in brief: as §1

LXF-289 = test system: LXF-289
Method in brief: as §1

HCC-827 = test system: HCC-827
Method in brief: as §1

HCC-15 = test system: HCC-15
Method in brief: as §1

COR-L23 = test system: COR-L23
Method in brief: as §1

NCI-H2009 = test system: NCI-H2009
Method in brief: as §1

SK-MES-1 = test system: SK-MES-1
Method in brief: as §1

NCI-H1666 = test system: NCI-H1666
Method in brief: as §1

NCI-H1975 = test system: NCI-H1975
Method in brief: as §1

NCI-H661 = test system: NCI-H661
Method in brief: as §1

H3255 = test system: H3255
Method in brief: as §1

NCI-H23 = test system: NCI-H23
Method in brief: as §1

NCI-H2087 = test system: NCI-H2087
Method in brief: as §1

PC-14 = test system: PC-14
Method in brief: as §1

NCI-H1437 = test system: NCI-H1437
Method in brief: as §1

PC-3 [JPC-3] = test system: PC-3 [JPC-3]
Method in brief: as §1

LCLC-103H = test system: LCLC-103H
Method in brief: as §1

ABC-1 = test system: ABC-1
Method in brief: as §1

## Cc1cn(-c2cc(NC(=O)c3ccc(C)c(Nc4nccc(-c5cccnc5)n4)c3)cc(C(F)(F)F)c2)cn1 [Nilotinib] + CS(=O)(=O)N1CCN(Cc2cc3nc(-c4cccc5[nH]ncc45)nc(N4CCOCC4)c3s2)CC1 [Pictilisib] (partner 1 µM)
NCI-H2085; first compound 0.001 µM
  relative viability: 0.435
NCI-H2085; first compound 0.003162 µM
  relative viability: 0.457
NCI-H2085; first compound 0.01 µM
  relative viability: 0.402
NCI-H2085; first compound 0.03162 µM
  relative viability: 0.466
NCI-H2085; first compound 0.1 µM
  relative viability: 0.405
NCI-H2228; first compound 0.001 µM
  relative viability: 0.27
NCI-H2228; first compound 0.003162 µM
  relative viability: 0.402
NCI-H2228; first compound 0.01 µM
  relative viability: 0.31
NCI-H2228; first compound 0.03162 µM
  relative viability: 0.356
NCI-H2228; first compound 0.1 µM
  relative viability: 0.397
LC-2-ad; first compound 0.001 µM
  relative viability: 0.385
LC-2-ad; first compound 0.003162 µM
  relative viability: 0.518
LC-2-ad; first compound 0.01 µM
  relative viability: 0.547
LC-2-ad; first compound 0.03162 µM
  relative viability: 0.379
LC-2-ad; first compound 0.1 µM
  relative viability: 0.117
UMC-11; first compound 0.001 µM
  relative viability: 0.801
UMC-11; first compound 0.003162 µM
  relative viability: 1.03
UMC-11; first compound 0.01 µM
  relative viability: 0.972
UMC-11; first compound 0.1 µM
  relative viability: 0.287
HCC-366; first compound 0.001 µM
  relative viability: 0.161
HCC-366; first compound 0.01 µM
  relative viability: 0.133
HCC-366; first compound 0.03162 µM
  relative viability: 0.111
HCC-366; first compound 0.1 µM
  relative viability: 0.137
LXF-289; first compound 0.001 µM
  relative viability: 0.837
LXF-289; first compound 0.003162 µM
  relative viability: 0.946
LXF-289; first compound 0.01 µM
  relative viability: 0.858
LXF-289; first compound 0.03162 µM
  relative viability: 0.667
LXF-289; first compound 0.1 µM
  relative viability: 0.335
HCC-827; first compound 0.001 µM
  relative viability: 0.685
HCC-827; first compound 0.003162 µM
  relative viability: 0.985
HCC-827; first compound 0.01 µM
  relative viability: 1.15
HCC-827; first compound 0.03162 µM
  relative viability: 0.829
HCC-827; first compound 0.1 µM
  relative viability: 0.965
HCC-15; first compound 0.001 µM
  relative viability: 0.703
HCC-15; first compound 0.003162 µM
  relative viability: 0.874
HCC-15; first compound 0.01 µM
  relative viability: 0.843
HCC-15; first compound 0.03162 µM
  relative viability: 0.542
HCC-15; first compound 0.1 µM
  relative viability: 0.301
COR-L23; first compound 0.001 µM
  relative viability: 0.777
COR-L23; first compound 0.003162 µM
  relative viability: 1.01
COR-L23; first compound 0.01 µM
  relative viability: 1.4
COR-L23; first compound 0.03162 µM
  relative viability: 0.901
COR-L23; first compound 0.1 µM
  relative viability: 0.607
NCI-H2009; first compound 0.001 µM
  relative viability: 0.79
NCI-H2009; first compound 0.003162 µM
  relative viability: 0.913
NCI-H2009; first compound 0.01 µM
  relative viability: 0.958
NCI-H2009; first compound 0.03162 µM
  relative viability: 0.655
NCI-H2009; first compound 0.1 µM
  relative viability: 0.187
SK-MES-1; first compound 0.001 µM
  relative viability: 0.433
SK-MES-1; first compound 0.003162 µM
  relative viability: 0.447
SK-MES-1; first compound 0.01 µM
  relative viability: 0.424
SK-MES-1; first compound 0.03162 µM
  relative viability: 0.396
SK-MES-1; first compound 0.1 µM
  relative viability: 0.465
NCI-H1666; first compound 0.001 µM
  relative viability: 0.348
NCI-H1666; first compound 0.003162 µM
  relative viability: 0.319
NCI-H1666; first compound 0.01 µM
  relative viability: 0.373
NCI-H1666; first compound 0.03162 µM
  relative viability: 0.463
NCI-H1666; first compound 0.1 µM
  relative viability: 0.397
NCI-H1975; first compound 0.001 µM
  relative viability: 0.299
NCI-H1975; first compound 0.003162 µM
  relative viability: 0.358
NCI-H1975; first compound 0.01 µM
  relative viability: 0.231
NCI-H1975; first compound 0.03162 µM
  relative viability: 0.312
NCI-H1975; first compound 0.1 µM
  relative viability: 0.19
NCI-H661; first compound 0.001 µM
  relative viability: 0.396
NCI-H661; first compound 0.003162 µM
  relative viability: 0.38
NCI-H661; first compound 0.01 µM
  relative viability: 0.438
NCI-H661; first compound 0.03162 µM
  relative viability: 0.325
NCI-H661; first compound 0.1 µM
  relative viability: 0.391
H3255; first compound 0.001 µM
  relative viability: 0.44
H3255; first compound 0.003162 µM
  relative viability: 0.438
H3255; first compound 0.01 µM
  relative viability: 0.57
H3255; first compound 0.03162 µM
  relative viability: 0.416
H3255; first compound 0.1 µM
  relative viability: 0.441
NCI-H23; first compound 0.001 µM
  relative viability: 0.411
NCI-H23; first compound 0.003162 µM
  relative viability: 0.498
NCI-H23; first compound 0.01 µM
  relative viability: 0.546
NCI-H23; first compound 0.03162 µM
  relative viability: 0.348
NCI-H23; first compound 0.1 µM
  relative viability: 0.403
NCI-H2087; first compound 0.001 µM
  relative viability: 0.759
NCI-H2087; first compound 0.003162 µM
  relative viability: 0.846
NCI-H2087; first compound 0.01 µM
  relative viability: 0.984
NCI-H2087; first compound 0.03162 µM
  relative viability: 0.606
NCI-H2087; first compound 0.1 µM
  relative viability: 0.32
PC-14; first compound 0.003162 µM
  relative viability: 0.83
PC-14; first compound 0.01 µM
  relative viability: 0.841
PC-14; first compound 0.03162 µM
  relative viability: 0.503
PC-14; first compound 0.1 µM
  relative viability: 0.664
NCI-H1437; first compound 0.001 µM
  relative viability: 0.381
NCI-H1437; first compound 0.003162 µM
  relative viability: 0.414
NCI-H1437; first compound 0.01 µM
  relative viability: 0.373
NCI-H1437; first compound 0.03162 µM
  relative viability: 0.47
NCI-H1437; first compound 0.1 µM
  relative viability: 0.44
PC-3 [JPC-3]; first compound 0.001 µM
  relative viability: 0.791
PC-3 [JPC-3]; first compound 0.003162 µM
  relative viability: 0.88
PC-3 [JPC-3]; first compound 0.01 µM
  relative viability: 0.833
PC-3 [JPC-3]; first compound 0.03162 µM
  relative viability: 0.747
PC-3 [JPC-3]; first compound 0.1 µM
  relative viability: 0.342
LCLC-103H; first compound 0.001 µM
  relative viability: 0.649
LCLC-103H; first compound 0.003162 µM
  relative viability: 0.638
LCLC-103H; first compound 0.03162 µM
  relative viability: 0.755
LCLC-103H; first compound 0.1 µM
  relative viability: 0.421
ABC-1; first compound 0.001 µM
  relative viability: 0.758
ABC-1; first compound 0.003162 µM
  relative viability: 0.697
ABC-1; first compound 0.01 µM
  relative viability: 0.788
ABC-1; first compound 0.03162 µM
  relative viability: 0.619
ABC-1; first compound 0.1 µM
  relative viability: 0.346
